Here are results for four compounds from publication PMC9494680 (ACS Omega, 2022).

One assay concerns SET-2 cells. The following applies: human megakaryoblastic cell line; cited from earlier work.
In the next assay the target is JAK3 (Homo sapiens, UniProt P52333). The following applies: read-out: IC50 for JAK3 kinase inhibition; cited from earlier work.
For assay [1], the system named is TF1 cells. The assay is described as follows: Cytotoxicity, PrestoBlue assay, TF1 cells. Format: cell-based. The following applies: Homo sapiens, TF-1, 72 h, read-out: IC50 toward TF1 cells.
Assay [2] deals with TF1 cells. The assay is described as follows: Annexin V and dead cell flow cytometric apoptosis analysis. Format: cell-based, human. The following applies: TF1, IC25, IC50, IC75, 24 h.
The next assay deals with HEL cells. The assay is described as follows: Cytotoxicity, PrestoBlue assay, HEL cells. It counts as cell-based. The following applies: Homo sapiens, 72 h, read-out: IC50 toward HEL cells.
In another assay the test system is JAK1. The conditions noted are these: read-out: IC50 for JAK1; cited from earlier work.

Sequence of JAK3 (P52333 781-1124 limits assumed): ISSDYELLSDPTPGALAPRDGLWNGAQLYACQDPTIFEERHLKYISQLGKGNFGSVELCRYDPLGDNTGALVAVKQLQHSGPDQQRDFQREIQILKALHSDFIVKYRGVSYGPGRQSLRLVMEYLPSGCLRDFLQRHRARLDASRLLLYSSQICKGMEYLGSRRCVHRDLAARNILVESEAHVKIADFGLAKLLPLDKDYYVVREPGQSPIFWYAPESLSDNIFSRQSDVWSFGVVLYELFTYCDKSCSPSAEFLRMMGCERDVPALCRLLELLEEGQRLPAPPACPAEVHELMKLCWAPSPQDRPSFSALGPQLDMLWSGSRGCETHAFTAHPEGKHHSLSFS

Turning to `Fc1cc(-c2cccc3ncc(-c4cnn(C5CCNCC5)c4)nc23)cc(F)c1CN1CCOCC1` [NVP-BSK805], the “Apoptosis induction in SET-2 cells” value in the assay with SET-2 cells was “induced apoptosis in SET-2 cells”. For the compound `COc1cc2ncnc(Nc3ccc(O)cc3)c2cc1OC` [WHI-P131], at JAK3, the IC50 is 9 µM.

Take `N#CC[C@H](C1CCCC1)n1cc(-c2ncnc3[nH]ccc23)cn1` [ruxolitinib]: the 50% inhibitory concentration (IC50) in the assay with TF1 cells [1] was 10.7 ± 0.88 µM; with HEL cells, 19.3 ± 0.64 µM; in the assay on JAK1, […]. For the same compound, the “Percentage of cell apoptosis vs dose, annexin V” value with TF1 cells [2] is given as “increased in a dose-dependent manner”. Turning to `C[C@@H]1CCN(C(=O)CC#N)C[C@@H]1N(C)c1ncnc2[nH]ccc12` [tofacitinib], the “Percentage of cell apoptosis vs dose, annexin V” value with TF1 cells [2] is reported as “increased in a dose-dependent manner”.
